Publication PMC7319900 (Nature, 2020)

Columns and labels:
BaiCD from C. hiranonis = target: T1, BaiCD from C. hiranonis (Peptacetobacter hiranonis, UniProt Q9RB48); experiment: LC-MS of acid-precipitated purified enzyme; format: binding; conditions: as purified after expression and lysis with added flavin
T1 sequence (Q9RB48 1-639): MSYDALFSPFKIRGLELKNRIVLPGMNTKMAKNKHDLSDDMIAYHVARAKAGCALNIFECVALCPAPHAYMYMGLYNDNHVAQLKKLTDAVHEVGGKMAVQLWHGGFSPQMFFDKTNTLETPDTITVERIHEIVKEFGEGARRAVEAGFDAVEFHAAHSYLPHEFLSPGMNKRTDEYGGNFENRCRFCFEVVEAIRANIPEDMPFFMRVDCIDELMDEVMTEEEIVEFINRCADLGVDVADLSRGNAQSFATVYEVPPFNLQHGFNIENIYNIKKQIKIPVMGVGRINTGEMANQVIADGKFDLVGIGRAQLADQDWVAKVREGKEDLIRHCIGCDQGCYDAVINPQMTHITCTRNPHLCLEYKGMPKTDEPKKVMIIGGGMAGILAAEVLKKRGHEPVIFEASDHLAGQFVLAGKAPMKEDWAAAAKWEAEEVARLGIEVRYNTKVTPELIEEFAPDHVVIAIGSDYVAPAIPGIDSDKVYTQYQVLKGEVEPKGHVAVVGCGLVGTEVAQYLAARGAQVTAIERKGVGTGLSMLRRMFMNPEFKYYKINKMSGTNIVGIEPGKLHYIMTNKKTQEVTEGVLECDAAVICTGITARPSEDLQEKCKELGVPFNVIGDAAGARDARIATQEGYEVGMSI

BaiH from C. scindens = target: T2, BaiH from C. scindens ([Clostridium] scindens, UniProt P32370); experiment: LC-MS of acid-precipitated purified enzyme; format: binding; conditions: as purified after expression and lysis with added flavin
T2 sequence (P32370 1-661): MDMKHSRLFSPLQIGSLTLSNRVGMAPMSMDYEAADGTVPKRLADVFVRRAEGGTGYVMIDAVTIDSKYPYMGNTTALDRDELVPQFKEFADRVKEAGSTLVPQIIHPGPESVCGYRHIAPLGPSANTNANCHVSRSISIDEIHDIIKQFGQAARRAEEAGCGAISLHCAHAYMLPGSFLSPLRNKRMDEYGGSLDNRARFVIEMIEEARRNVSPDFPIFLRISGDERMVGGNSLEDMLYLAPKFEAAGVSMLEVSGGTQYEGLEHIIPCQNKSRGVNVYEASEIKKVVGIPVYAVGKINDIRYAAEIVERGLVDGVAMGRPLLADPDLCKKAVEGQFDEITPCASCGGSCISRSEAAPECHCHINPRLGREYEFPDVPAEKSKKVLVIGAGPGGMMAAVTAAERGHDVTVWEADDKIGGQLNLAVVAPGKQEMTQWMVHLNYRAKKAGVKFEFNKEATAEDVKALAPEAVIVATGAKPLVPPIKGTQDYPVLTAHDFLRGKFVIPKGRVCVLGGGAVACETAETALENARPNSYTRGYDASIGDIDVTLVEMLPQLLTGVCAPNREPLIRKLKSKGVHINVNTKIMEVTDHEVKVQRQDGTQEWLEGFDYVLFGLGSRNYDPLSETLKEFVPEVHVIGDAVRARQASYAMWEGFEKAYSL

BaiA2 from C. scindens = target: T3, BaiA2 from C. scindens ([Clostridium] scindens, UniProt P19337); experiment: LC-MS extracted ion chromatograms; format: biochemical; conditions: reduction to DCA; experiment performed once
T3 sequence (P19337 1-249): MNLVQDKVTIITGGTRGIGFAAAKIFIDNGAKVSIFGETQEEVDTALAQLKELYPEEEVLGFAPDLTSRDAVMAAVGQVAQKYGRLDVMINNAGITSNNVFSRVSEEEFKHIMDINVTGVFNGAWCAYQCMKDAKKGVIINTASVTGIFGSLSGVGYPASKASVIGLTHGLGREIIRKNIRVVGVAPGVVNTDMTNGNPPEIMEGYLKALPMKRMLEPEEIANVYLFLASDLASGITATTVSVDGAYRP

SMILES	LC-MS of acid-precipitated purified enzyme; UV-vis (BaiCD from C. hiranonis)	LC-MS of acid-precipitated purified enzyme; UV-vis (BaiH from C. scindens)	LC-MS extracted ion chromatograms (BaiA2 from C. scindens)
Cc1cc2nc3c(=O)[nH]c(=O)nc-3n(C[C@H](O)[C@H](O)[C@H](O)COP(=O)(O)OP(=O)(O)OC[C@H]3O[C@@H](n4cnc5c(N)ncnc54)[C@H](O)[C@@H]3O)c2cc1C [FAD]	The presence of FAD and FMN were confirmed by precipitating purified enzyme with sulfuric acid	The presence of FAD and FMN were confirmed by precipitating purified enzyme with sulfuric acid	–
C[C@H](CCC(=O)O)[C@H]1CC[C@H]2[C@@H]3CC[C@@H]4CC(=O)CC[C@]4(C)[C@H]3C[C@H](O)[C@]12C [compound 8, 3-oxo-deoxycholic acid]	–	–	conversion of 3-oxo-DCA to DCA by recombinant BaiA2
Cc1cc2nc3c(=O)[nH]c(=O)nc-3n(C[C@H](O)[C@H](O)[C@H](O)COP(=O)(O)O)c2cc1C [FMN]	The presence of FAD and FMN were confirmed by precipitating purified enzyme with sulfuric acid	The presence of FAD and FMN were confirmed by precipitating purified enzyme with sulfuric acid	–
